Experiments:
[1] = system: SK-OV-3; experiment: Cell cycle arrest in human SKOV3 cells assessed as accumulation at G2/M phase at 5 nM by flow cytometry (reference value: 14%); assay type: functional
[2] = system: HeLa; experiment: Cytotoxicity against human HeLa cells; assay type: functional, cell-based
[3] = system: SK-OV-3; experiment: Cytotoxicity against human SKOV3 cells after 48 hrs by MTS assay; assay type: functional, cell-based; settings: SK-OV-3, 48 h
[4] = system: HUVEC; experiment: Antivascular activity against HUVEC cells assessed as cell growth inhibition measured every 30 mins for 21 hrs by xCELLigence assay; assay type: functional, cell-based; settings: Homo sapiens
[5] = system: SK-OV-3; experiment: Cell cycle arrest in human SKOV3 cells assessed as accumulation at G1 phase at 5 nM by flow cytometry (reference value: 54%); assay type: functional
[6] = organism: Bos taurus; experiment: Inhibition of bovine tubulin polymerization at 5 uM measured every 30 secs for 60 mins by spectrophotometry relative to control
[7] = system: SK-OV-3; experiment: Cell cycle arrest in human SKOV3 cells assessed as accumulation at S phase at 5 nM by flow cytometry (reference value: 31%); assay type: functional
[8] = system: HUVEC; experiment: Antivascular activity against HUVEC cells assessed as cell growth inhibition after 24 hrs by xCELLigence assay; assay type: functional, cell-based; settings: Homo sapiens
[9] = system: HUVEC; experiment: Antivascular activity against HUVEC cells assessed as cell growth inhibition after 48 hrs by xCELLigence assay; assay type: functional, cell-based; settings: Homo sapiens

COc1ccc(/C=C\c2cc(I)c(OC)c(I)c2)cc1O
Activity [1]: 84%

COc1cc(-c2nn[nH]c2-c2ccc(N)cc2)cc(OC)c1OC
IC50 [2]: 5000 nM

COc1ccc(/C=C\c2cc(Br)c(OC)c(Br)c2)cc1O
Activity [1]: 54%

COc1ccc(/C=C\c2cc(OC)c(OC)c(OC)c2)cc1O [COMBRETASTATIN A4]
IC50 [3]: 1.7 nM | IC50 [4]: 2.2 nM | Activity [1]: 31% | Activity [5]: 40% | inhibition [6]: 57.6% | Activity [7]: 23%

COc1ccc(/C=C\c2cc(OC)c(OC)c(OC)c2)c(O)c1O [COMBRETASTATIN A-1]
IC50 [8]: 2.6 nM | IC50 [9]: 4.1 nM
